Columns and labels:
[1] = Dissolving tests with ERr 731 dry extract in ethanol and glycerol; format: physicochemical; conditions: for dissolved proportion, % of theory, Test B / content found in solution, Test B: 200 mg of dry extract in 50 ml of ethanol 30% R; for content found in solution, Test B / content found in solution, Test C / content found in solution, Test D / content found in solution, Test A: extract content 61.9% rhaponticin, 29.9% deoxyrhaponticin; for dissolved proportion, % of theory, Test C / content found in solution, Test C: 200 mg of dry extract in 50 ml of ethanol 50% R; for dissolved proportion, % of theory, Test D / content found in solution, Test D: 200 mg of dry extract in 50 ml of ethanol 86% R; for dissolved proportion, % of theory, Test A / content found in solution, Test A: 200 mg of dry extract in 50 ml of glycerol R
Experimental: Determination of Stilbenes by High-Pressure Liquid Chromatography (HPLC) in the Dry Extract from Rhapontic Rhubarb Root
50 mg of extract, mixed with 40 ml of a mixture of acetone and water (1:1) in an amber glass vessel, treated in an ultrasonic bath for 15 minutes and made up to 50 ml with the solvent mixture and then diluted 1:10 with the solvent mixture.
A high-pressure liquid chromatography (HPLC) is carried out on a portion of the solution obtained above, with the following system parameters:
For a quantitative determination, the respective peak areas are found and compared with the corresponding peak areas of a standard extract of known composition.
a) Dissolving Tests with ERr 731® in Ethanol and Glycerol:
Content of the extract: • 61.9% rhaponticin • 29.9% deoxyrphaponticin

[2] = pH-dependent solubility of rhaponticin in aqueous solutions; format: physicochemical
From the text: Use is made of this for its isolation. Since, besides other organic acids, the root in particular has a high content of oxalic acid (⅔ in water-soluble and ⅓ in bound form), this must be neutralized during the isolation in order to prevent the pH drifting into the acidic range and thus to inhibit premature precipitation of the rhaponticin. This is achieved by using calcium oxide. The latter is employed as quicklime solution with a pH of 12.4-12.6.

SMILES	dissolved proportion, % of theory, Test B [1]	content found in solution, Test B [1]	dissolved proportion, % of theory, Test C [1]	content found in solution, Test C [1]	dissolved proportion, % of theory, Test D [1]	content found in solution, Test D [1]	dissolved proportion, % of theory, Test A [1]	content found in solution, Test A [1]	solubility in aqueous solutions ([2]; acidic pH range (pH 3.4-3.6))	solubility in aqueous solutions ([2]; alkaline pH range)
COc1ccc(C=Cc2cc(O)cc(O[C@@H]3O[C@H](CO)[C@@H](O)[C@H](O)[C@H]3O)c2)cc1O [rhaponticin, 3,3′,5-Trihydroxy-4′-methoxystilbene-3-O-β-D-glucopyranoside]	(84.3% of theory)	52.2% rhaponticin	(95.0% of theory)	58.8% rhaponticin	(96.6% of theory)	59.8% rhaponticin	(89.0% of theory)	55.1% rhaponticin	precipitated	readily soluble
COc1ccc(C=Cc2cc(O)cc(O[C@@H]3O[C@H](CO)[C@@H](O)[C@H](O)[C@H]3O)c2)cc1 [deoxyrhaponticin]	(84.2% of theory)	25.2% deoxyrhaponticin	(97.0% of theory)	29.0% deoxyrhaponticin	(98.7% of theory)	29.5% deoxyrhaponticin	(90.6% of theory)	27.1% deoxyrhaponticin	–	–
